Source: patent US12667557B2, “Method for treating EGFR-TKI-resistant non-small cell lung cancer by administration of anti-HER3 antibody-drug conjugate” (priority 2017, dated 2026)

Columns and labels:
topoisomerase I = biological target: T1, topoisomerase I (Homo sapiens, UniProt P11387); details: Ogitani Y. et al., Clinical Cancer Research, 2016; 22(20):5097-5108; cited from earlier work
T1 sequence (P11387 1-765): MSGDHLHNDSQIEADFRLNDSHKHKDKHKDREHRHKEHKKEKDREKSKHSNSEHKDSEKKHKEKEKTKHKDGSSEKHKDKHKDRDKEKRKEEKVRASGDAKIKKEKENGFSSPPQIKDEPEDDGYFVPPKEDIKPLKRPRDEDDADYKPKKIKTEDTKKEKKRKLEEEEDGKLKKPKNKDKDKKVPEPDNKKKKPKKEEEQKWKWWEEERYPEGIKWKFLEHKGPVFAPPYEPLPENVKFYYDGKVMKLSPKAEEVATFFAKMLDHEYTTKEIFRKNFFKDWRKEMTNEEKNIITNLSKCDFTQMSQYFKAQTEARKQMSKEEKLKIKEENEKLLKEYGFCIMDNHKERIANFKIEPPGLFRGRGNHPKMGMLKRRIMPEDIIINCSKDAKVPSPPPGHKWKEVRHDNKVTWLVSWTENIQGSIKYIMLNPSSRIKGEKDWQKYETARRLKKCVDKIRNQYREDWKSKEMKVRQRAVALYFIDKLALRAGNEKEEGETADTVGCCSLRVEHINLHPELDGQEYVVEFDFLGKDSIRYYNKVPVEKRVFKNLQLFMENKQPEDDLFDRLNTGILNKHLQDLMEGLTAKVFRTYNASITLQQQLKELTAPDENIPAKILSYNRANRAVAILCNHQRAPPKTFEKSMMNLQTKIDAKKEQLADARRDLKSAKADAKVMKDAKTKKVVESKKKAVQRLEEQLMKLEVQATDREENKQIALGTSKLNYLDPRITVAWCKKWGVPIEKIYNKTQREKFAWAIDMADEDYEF

cell strain HCC827GR5 [1] = assay: Cell proliferation suppressing activity (CellTiter Glo) against cell strain HCC827GR5; assay type: cell-based, human; details: 7th day of treatment
Experimental: Cell strain HCC827GR5 was cultured in a medium obtained by adding gefitinib at a final concentration of 1 μM into the aforementioned medium.
Cell strain HCC827GR5 was cultured in a medium obtained by adding gefitinib at a final concentration of 1 μM into RPMI1640 medium (manufactured by Sigma-Aldrich Corp.) containing R10 medium (10% fetal bovine serum and 1% penicillin-streptomycin B (manufactured by Wako Pure Chemical Industries, Ltd.)). After cell strain HCC827GR5 was cultured, the cells were detached by trypsin treatment and then collected. The number of cells in the cell suspension was measured, and the cells were suspended in RPMI1640 medium containing 10% fetal bovine serum. The suspension was adjusted to have a concentration of 100,000 cells/mL. 50 μL of each cell suspension was added to each well of SUMILON 96-well plate (manufactured by Sumitomo Bakelite Co., Ltd.) (5,000 cells/well), and culture was carried out. […] On the 7th day from the initiation of treatment, 50 μL of CellTiter Glo (manufactured by Promega Corp.) was added to each well and then the culture system was stirred for 2 minutes with a plate mixer. The plate was left to stand for 30 minutes under light-shielded conditions. An aliquot of 120 μL was taken from each well and was transferred onto a black microplate, and the luminescence values were measured with a luminometer.

[2] = test system: cell strain HCC827GR5 transplanted in nude mice; assay: Antitumor effect on cell strain HCC827GR5 transplanted in nude mice; assay type: in vivo, nude mice (BALB/cAJcl-nu/nu); details: for Estimated tumor volume Average value: HER3-ADC (1) 10 mg/kg i.p. once a week, erlotinib 25 mg/kg oral six times a week; for Tumor growth inhibition ratio (%): compared with the control group, HER3-ADC (1) 10 mg/kg i.p., erlotinib 25 mg/kg oral
Experimental: Cell strain HCC827GR5 was cultured in RPMI1640 medium (manufactured by Sigma-Aldrich Corp.) containing R10 medium (10% fetal bovine serum and 1% penicillin-streptomycin B (manufactured by Wako Pure Chemical Industries, Ltd.)) and erlotinib at a final concentration of 1 μM, subsequently the cells were detached by trypsin treatment and then collected. The number of cells in the cell suspension was measured, and the cells were suspended in R10 medium. The suspension was adjusted to have a concentration of 75,000,000 cells/mL. 100 μL of the cell suspension thus prepared (7,500,000 cells) was transplanted subcutaneously into the ventral region of 6-week old female nude mice (BALB/cAJcl-nu/nu), and then after 7 days from tumor transplantation, at which the average value of the estimated […] tumor volume of the transplanted tumors became […], grouping was carried out. Then, drug administration was initiated (day 0). HER3-ADC (1) was dissolved in phosphate buffer saline (PBS), and the solution was adjusted to have a concentration of 1 mg/mL. Erlotinib was dissolved in a hydroxypropylmethyl cellulose (HPMC) solution, and the solution was adjusted to have a concentration of 2.75 mg/mL. To the single-agent treatment groups of each drug, from day 0 to day 49 at the maximum, prepared HER3-ADC (1) was administered intraperitoneally once a week (7 times in total) at a dose of 200 μL/mouse (10 mg/kg), and prepared erlotinib was administered orally six times a week (19 in total) at a dose of 0.18 mL/mouse (25 mg/kg). On the other hand, to the combination treatment group, HER3-ADC (1) and erlotinib were administered from day 0 at the same dose in the same schedule as those of the single-agent treatment groups. A control group, which was not subjected to administration, was also established. For all of the groups, ten mice were used per group. After the initiation of administration, the tumor diameters (major axis and minor axis) were measured twice a week (on days 0, 3, 7, 10, 14, 17, 21, 24, 28, 31, 35, 38, 41, 45, and 49), and the estimated tumor volumes in each group were calculated according to the following formula. Subsequently, the average value of the estimated tumor volume for each group was calculated. Estimated tumor volume (Volume, mm^3)=major axis (mm)×minor axis (mm)^2÷2
Furthermore, the tumor growth inhibition ratio of each group compared with the control group was calculated according to the following formula. Tumor growth inhibition ratio (%)=100−(average value of estimated tumor volume of treatment group÷average value of estimated tumor volume of control group×100)
From the viewpoint of animal ethics, the measurement for the control and erlotinib single-agent treatment groups was terminated at the 21st day since the estimated tumor volume reached 1,200 to 1,500 mm^3. Along with this, the calculation of the tumor growth inhibition ratio (%) was made up to day 21.

cell strain HCC827GR5 [3] = details: reported in K. Yonesaka et al., Oncogene (2016) 35, 878-886; cited from earlier work
cell strain PC9 = assay: Cell proliferation suppressing activity of osimertinib against cell strain PC9; assay type: cell-based, human; details: 0.01 μM or higher concentrations of osimertinib; 3rd day of treatment
Experimental: (§1) Cell strains PC9 and PC9AZDR7 were cultured in RPMI1640 medium (manufactured by Sigma-Aldrich Corp.) containing 10% fetal bovine serum and 1% penicillin-streptomycin B (manufactured by Wako Pure Chemical Industries, Ltd.). PC9AZDR7 was cultured with 100 nM osimertinib added to the medium. After cell strains PC9 and PC9AZDR7 were cultured, the cells were detached by trypsin treatment and then collected. […] Subsequently, 50 μL of each cell suspension was added into each well of SUMILON 96-well plate (manufactured by Sumitomo Bakelite Co., Ltd.) (10,000 cells/well), and culture was carried out. One day after the initiation of culture, osimertinib dilutions, each of which was prepared to have one of various concentrations, or as a negative control, RPMI-1640 medium not containing any drug was added, and culture was carried out. […] The plate was left to stand for 30 minutes under light-shielded conditions. […] The cell proliferation suppressing activity (% of control) of each drug was calculated using the following formula. % of Control=(Average luminescence value in specimen-added wells÷average luminescence value in negative control wells)×100

cell strain PC9AZDR7 = assay: Cell proliferation suppressing activity of osimertinib against cell strain PC9AZDR7; assay type: cell-based, human; details: 1 μM or lower concentrations of osimertinib; 3rd day of treatment
Experimental: as §1

[4] = test system: cell strain PC9AZDR7 transplanted in nude mice; assay: Antitumor effect of combination of HER3-ADC (1) and osimertinib on cell strain PC9AZDR7 transplanted in nude mice; assay type: in vivo, nude mice (BALB/cAJcl-nu/nu); details: for Estimated tumor volume Average value: HER3-ADC (1) 1 mg/kg i.p. on Day 1, osimertinib 1 mg/kg oral Days 1-5, 8-12, 15-19; for Tumor growth inhibition ratio (%): compared with the control group, HER3-ADC (1) 1 mg/kg i.p., osimertinib 1 mg/kg oral
Experimental: Cell strain PC9AZDR7 was cultured in RPMI1640 medium (manufactured by Sigma-Aldrich Corp.) containing 10% fetal bovine serum and 1% penicillin-streptomycin B (manufactured by Wako Pure Chemical Industries, Ltd.) and 100 nM osimertinib. After cell strain PC9AZDR7 was cultured, the cells were detached by trypsin treatment and then collected. […] From the next day of grouping (1st day), drug administration was initiated. […] As a control group, a group not receiving any administration was established. […] After the initiation of administration, the tumor diameters (major axis and minor axis) were measured twice a week, and the estimated tumor volume in each group was calculated according to the following formula. Subsequently, the average value of the estimated tumor volume for each group was calculated. […] The tumor growth inhibition ratio of each group compared with the control group was calculated using the following formula.

## CC[C@@]1(O)C(=O)OCc2c1cc1n(c2=O)Cc2c-1nc1cc(F)c(C)c3c1c2[C@@H](NC(=O)CO)CC3
Topoisomerase I
  topoisomerase I inhibitory activity: confirmed to have a topoisomerase I inhibitory activity

## C#Cc1cccc(Nc2ncnc3cc(OCCOC)c(OCCOC)cc23)c1 [Erlotinib, erlotinib]
Cell strain HCC827GR5 [1]; 1 μg/mL of erlotinib (so in the source)
  cell proliferation suppressing activity (% Control): 69.2%
Cell strain HCC827GR5 [1]; 3.3 μg/mL of erlotinib (so in the source)
  cell proliferation suppressing activity (% Control): 52.6%
Cell strain HCC827GR5 [1]; 10 μg/mL of erlotinib (so in the source)
  cell proliferation suppressing activity (% Control): 31.7%
[2]; Day 0
  Estimated tumor volume Average value: 124.5 mm^3
  Tumor growth inhibition ratio (%): 2.7%
[2]; Day 3
  Estimated tumor volume Average value: 189.7 mm^3
  Tumor growth inhibition ratio (%): 22.0%
[2]; Day 7
  Estimated tumor volume Average value: 347.5 mm^3
  Tumor growth inhibition ratio (%): 26.0%
[2]; Day 10
  Estimated tumor volume Average value: 420.0 mm^3
  Tumor growth inhibition ratio (%): 29.1%
[2]; Day 14
  Estimated tumor volume Average value: 747.8 mm^3
  Tumor growth inhibition ratio (%): 14.5%
[2]; Day 17
  Estimated tumor volume Average value: 1117.9 mm^3
  Tumor growth inhibition ratio (%): 20.4%
[2]; Day 21
  Estimated tumor volume Average value: 1225.5 mm^3
  Tumor growth inhibition ratio (%): 21.1%
[2]; on Day 21, Dunnet's Multiple Comparison test p<0.001 for the significant effects
  antitumor effect / efficacy (in words): did not exhibit efficacy
Cell strain HCC827GR5 [3]
  sensitivity to alone therapy: not to exhibit strong sensitivity

## C=CC(=O)Nc1cc(Nc2nccc(-c3cn(C)c4ccccc34)n2)c(OC)cc1N(C)CCN(C)C [Osimertinib, osimertinib]
Cell strain PC9
  cell proliferation suppressing activity: Strong cell proliferation suppressing activities
Cell strain PC9AZDR7
  cell proliferation suppressing activity: no cell proliferation suppressing activity was observed
[4]; Day 0
  Estimated tumor volume Average value: 64.2 mm^3
  Tumor growth inhibition ratio (%): 5.3%
[4]; Day 5
  Estimated tumor volume Average value: 249.3 mm^3
  Tumor growth inhibition ratio (%): 6.0%
[4]; Day 8
  Estimated tumor volume Average value: 271.7 mm^3
  Tumor growth inhibition ratio (%): 5.8%
[4]; Day 11
  Estimated tumor volume Average value: 357.2 mm^3
  Tumor growth inhibition ratio (%): 17.9%
[4]; Day 16
  Estimated tumor volume Average value: 533.4 mm^3
  Tumor growth inhibition ratio (%): 6.7%
[4]; Day 18
  Estimated tumor volume Average value: 650.7 mm^3
  Tumor growth inhibition ratio (%): 9.8%
[4]; Day 21
  Estimated tumor volume Average value: 710.6 mm^3
  Tumor growth inhibition ratio (%): 27.7%
